Source: patent US8293731B2, “HIV integrase inhibitors” (Merck Sharp + Dohme Corp., priority 2005, dated 2012)

system: HIV; test: Assay for inhibition of HIV replication (spread assay): acute HIV infection of T-lymphoid cells; format: cell-based; conditions: Human immunodeficiency virus 1, 'less than about'
Method: Assays for the inhibition of acute HIV infection of T-lymphoid cells were conducted in accordance with Vacca, J. P. et al., Proc. Natl. Acad. Set USA 1994, 91: 4096. […] For example, the compounds of Examples 1 to 64 were tested in this assay and found to have IC95 values of less than about 10 micromolar.

Row | SMILES | IC95
1 | O=C1OCCn2c1c1c(c(O)c2=O)C(=O)N(Cc2ccc(F)c(Cl)c2)CC1 [Example 7, 9-(3-Chloro-4-fluorobenzyl)-7-hydroxy-3,4,10,11-tetrahydro[1,4]oxazino[3,4-a]-2,6-naphthyridine-1,6,8(9H)-trione] | < 10 µM
2 | CN1C(=O)C(C)(C)n2c1c1c(c(O)c2=O)C(=O)N(Cc2ccc(F)c(Cl)c2)CC1 [Example 9, 8-(3-Chloro-4-fluorobenzyl)-6-hydroxy-1,3,3-trimethyl-1,8,9,10-tetrahydroimidazo[2,1a]-2,6-naphthyridine-2,5,7(3H)-trione] | < 10 µM
3 | CN1CCC[C@H](CO)n2c(c3c(c(O)c2=O)C(=O)N(Cc2ccc(F)c(Cl)c2)CC3)C1=O [Example 47, (6R)-11-(3-Chloro-4-fluorobenzyl)-9-hydroxy-6-(hydroxymethyl)-2-methyl-3,4,5,6,12,13-hexahydro-2H-[1,4]diazocino[2,1-a]-2,6-naphthyridine-1,8,10(11H)-trione] | < 10 µM
4 | CC1CCCN(CCN2CCCCC2)C(=O)c2c3c(c(O)c(=O)n21)C(=O)N(Cc1ccc(F)c(Cl)c1)CC3 (stereo not shown) [Example 33, 11-(3-Chloro-4-fluorobenzyl)-9-hydroxy-2-(2-piperidinyl-1-ylethyl)-6-methyl-3,4,5,6,12,13-hexahydro-2H[1,4]diazocino[2,1-a]-2,6-naphthyridine-1,8,10(11H)-trione] | < 10 µM
5 | C[C@H]1C[C@H](O)CN(C)C(=O)c2c3c(c(O)c(=O)n21)C(=O)N(Cc1ccc(F)c(Cl)c1)CC3 [Example 44, (4S,6S)-11-(3-Chloro-4-fluorobenzyl)-4,9-dihydroxy-2,6-dimethyl-3,4,5,6,12,13-hexahydro-2H[1,4]diazocino[2,1-a]-2,6-naphthyridine-1,8,10(11H)-trione] | < 10 µM
6 | CN1CC(O)C(C)(C)Cn2c(c3c(c(O)c2=O)C(=O)N(Cc2ccc(F)c(Cl)c2)CC3)C1=O (racemic) [Example 40, (4R/S)-11-(3-Chloro-4-fluorobenzyl)-4,9-dihydroxy-2,5,5-trimethyl-3,4,5,6,12,13-hexahydro-2H[1,4]diazocino[2,1-a]-2,6-naphthyridine-1,8,10(11H)-trione] | < 10 µM
7 | CS(=O)(=O)NCCN1CCCCn2c(c3c(c(O)c2=O)C(=O)N(Cc2ccc(F)c(Cl)c2)CC3)C1=O [Example 21, 11-(3-Chloro-4-fluorobenzyl)-9-hydroxy-2-[2-(methamesulfonylamino)ethyl]-3,4,5,6,12,13-hexahydro-2H[1,4]diazocino[2,1-a]-2,6-naphthyridine-1,8,10(11H)-trione] | < 10 µM
8 | O=C1c2c(c3n(c(=O)c2O)CCCCN(CCN2CCCC2)C3=O)CCN1Cc1ccc(F)c(Cl)c1 [Example 17, 11-(3-Chloro-4-fluorobenzyl)-9-hydroxy-2-(2-pyrrolidinyl-1-ylethyl)-3,4,5,6,12,13-hexahydro-2H[1,4]diazocino[2,1-a]-2,6-naphthyridine-1,8,10(11H)-trione] | < 10 µM
9 | C[C@H]1C[C@@H](O)CN(C)C(=O)c2c3c(c(O)c(=O)n21)C(=O)N(Cc1ccc(F)c(Cl)c1)CC3 [Example 43, (4R,6S)-11-(3-Ch1oro-4-fluorobenzyl)-4,9-dihydroxy-2,6-dimethyl-3,4,5,6,12,13-hexahydro-2H[1,4]diazocino[2,1-a]-2,6-naphthyridine-1,8,10(11H)-trione] | < 10 µM
10 | CC1CCCN(CCO)C(=O)c2c3c(c(O)c(=O)n21)C(=O)N(Cc1ccc(F)c(Cl)c1)CC3 (stereo not shown) [Example 30, 11-(3-Chloro-4-fluorobenzyl)-9-hydroxy-2-(2-hydroxyethyl)-6-methyl-3,4,5,6,12,13-hexahydro-2H[1,4]diazocino[2,1-a]-2,6-naphthyridine-1,8,10(11H)-trione] | < 10 µM
11 | CN(C)C(=O)CN1C(=O)C(C)(C)n2c1c1c(c(O)c2=O)C(=O)N(Cc2ccc(F)c(Cl)c2)CC1 [Example 51, 2-[8-(3-Chloro-4-fluorobenzyl)-6-hydroxy-3,3-dimethyl-2,5,7-trioxo-2,3,7,8,9,10-hexahydroimidazo[2,1-a]-2,6-naphthyridin-1(5H)-yl]-N,N-dimethylacetamide] | < 10 µM
12 | CC1(C)C(=O)N(CCO)c2c3c(c(O)c(=O)n21)C(=O)N(Cc1ccc(F)c(Cl)c1)CC3 [Example 54, 8-(3-Chloro-4-fluorobenzyl)-6-hydroxy-1-(2-hydroxyethyl)-3,3-dimethyl-1,8,9,10-tetrahydroimidazo[2,1-a]-2,6-naphthyridine-2,5,7(3H)-trione] | < 10 µM
13 | O=C1c2c(c3n(c(=O)c2O)CCCCN(CCO)C3=O)CCN1Cc1ccc(F)c(Cl)c1 [Example 11, 11-(3-Chloro-4-fluorobenzyl)-9-hydroxy-2-(2-hydroxyethyl)-3,4,5,6,12,13-hexahydro-2H[1,4]diazocino[2,1-a]-2,6-naphthyridine-1,8,10(11H)-trione] | < 10 µM
14 | CN1CC(N2CCOCC2)CCn2c(c3c(c(O)c2=O)C(=O)N(Cc2ccc(F)c(Cl)c2)CC3)C1=O (stereo not shown) [Example 27, 11-(3-Chloro-4-fluorobenzyl)-9-hydroxy-2-methyl-4-morpholin-4-yl-3,4,5,6,12,13-hexahydro-2H[1,4]diazocino[2,1-a]-2,6-naphthyridine-1,8,10(11H)-trione] | < 10 µM
15 | O=C1NCCn2c1c1c(c(O)c2=O)C(=O)N(Cc2ccc(F)c(Cl)c2)CC1 [Example 5, 9-(3-Chloro-4-fluorobenzyl)-7-hydroxy-3,4,10,11-tetrahydro-2H-pyrazino[2,1-a]-2,6-naphthyridine-1,6,8(9H)-trione] | < 10 µM
16 | CC1CCn2c(c3c(c(O)c2=O)C(=O)N(Cc2ccc(F)c(Cl)c2)CC3)C(=O)N(C)C1 (stereo not shown) [Example 46, 11-(3-Chloro-4-fluorobenzyl)-9-hydroxy-2,4-dimethyl-3,4,5,6,12,13-hexahydro-2H[1,4]diazocino[2,1-a]-2,6-naphthyridine-1,8,10(11H)-trione] | < 10 µM
17 | CN1CCC(O)Cn2c(c3c(c(O)c2=O)C(=O)N(Cc2ccc(F)c(Cl)c2)CC3)C1=O (stereo not shown) [Example 37, 11(3-Chloro-4-fluorobenzyl)-5,9-dihydroxy-2-methyl-3,4,5,6,12,13-hexahydro-2H[1,4]diazocino[2,1-a]-2,6-naphthyridine-1,8,10(11H)-trione] | < 10 µM
18 | CC(=O)OCCCCN1C(=O)C(C)(C)n2c1c1c(c(O)c2=O)C(=O)N(Cc2ccc(F)c(Cl)c2)CC1 [Example 59, 8-(3-Chloro-4-fluorobenzyl)-6-hydroxy-1-(4-acetyloxybutyl)-3,3-dimethyl-1,8,9,10-tetrahydroimidazo[2,1-a]-2,6-naphthyridine-2,5,7(3H)-trione] | < 10 µM
19 | O=C1OCCCCn2c1c1c(c(O)c2=O)C(=O)N(Cc2ccc(F)c(Cl)c2)CC1 [Example 61, 11-(3-Chloro-4-fluorobenzyl)-9-hydroxy-3,4,5,6,12,13-hexahydro-[1,4]oxazocino[3,4-a]-2,6-naphthyridine-1,8,10(11H)-trione] | < 10 µM
20 | CC1C(=O)N(C)c2c3c(c(O)c(=O)n21)C(=O)N(Cc1ccc(F)c(Cl)c1)CC3 (stereo not shown) [Example 8, 8-(3-Chloro-4-fluorobenzyl)-6-hydroxy-1,3-dimethyl-1,8,9,10-tetrahydroimidazo[2,1-a]-2,6-naphthyridine-2,5,7(3H)-trione] | < 10 µM
21 | O=C1c2c(c3n(c(=O)c2O)CCCCN(CCN2CCOCC2)C3=O)CCN1Cc1ccc(F)c(Cl)c1 [Example 16, 11-(3-Chloro-4-fluorobenzyl)-9-hydroxy-2-(2-morpholin-4-ylethyl)-3,4,5,6,12,13-hexahydro-2H[1,4]diazocino[2,1a]-2,6-naphthyridine-1,8,10(11H)-trione] | < 10 µM
22 | CC1(CCO)C(=O)N(CCO)c2c3c(c(O)c(=O)n21)C(=O)N(Cc1ccc(F)c(Cl)c1)CC3 (stereo not shown) [Example 60, 8-(3-Chloro-4-fluorobenzyl)-6-hydroxy-1,3-bis(2-hydroxyethyl)-3-methyl-1,8,9,10-tetrahydroimidazo[2,1-a]-2,6-naphthyridine-2,5,7(3H)-trione] | < 10 µM
23 | CN1CCC[C@H](CO)n2c(c3c(c(O)c2=O)C(=O)N(Cc2ccc(F)cc2)CC3)C1=O [Example 48, (6R) 11-(4-Fluorobenzyl)-9-hydroxy-6-(hydroxymethyl)-2-methyl-3,4,5,6,12,13-hexahydro-2H-[1,4]diazocino[2,1-a]2,6-naphthyridine-1,8,10(11H)-trione] | < 10 µM
24 | NC(=O)CN1CCCCn2c(c3c(c(O)c2=O)C(=O)N(Cc2ccc(F)c(Cl)c2)CC3)C1=O [Example 15, 2-[11-(3-Chloro-4-fluorobenzyl)-9-hydroxy-1,8,10-trioxo-1,3,4,5,6,8,10,11,12,13-deca-hydro-2H-[1,4]diazocino[2,1-a]-2,6-naphthyridin-2-yl]acetamide] | < 10 µM
25 | CN1CCCCn2c(c3c(c(O)c2=O)C(=O)N(Cc2ccc(F)c(Cl)c2)CC3)C1=O [Example 1, 11-(3-Chloro-4-fluorobenzyl)-9-hydroxy-2-methyl-3,4,5,6,12,13-hexahydro-2H[1,4]diazocino[2,1-a]-2,6-naphthyridine-1,8,10(11H)-trione] | < 10 µM
26 | CN1CC(=O)CCn2c(c3c(c(O)c2=O)C(=O)N(Cc2ccc(F)c(Cl)c2)CC3)C1=O [Example 25, 11-(3-Chloro-4-fluorobenzyl)-9-hydroxy-2-methyl-5,6,12,13-tetrahydro-2H[1,4]diazocino[2,1-a]-2,6-naphthyridine-1,4,8,10(3H, 11H)-tetrone] | < 10 µM
27 | O=C1NCCCn2c1c1c(c(O)c2=O)C(=O)N(Cc2ccc(F)c(Cl)c2)CC1 [Example 4, 10-(3-Chloro-4-fluorobenzyl)-8-hydroxy-2,3,4,5,11,12-hexahydro[1,4]diazepino[2,1-a]-2,6-naphthyridine-1,7,9(10H)-trione] | < 10 µM
28 | CC1CCCN(C)C(=O)c2c3c(c(O)c(=O)n21)C(=O)N(Cc1ccc(F)c(Cl)c1)CC3 (stereo not shown) [Example 28, 11-(3-Chloro-4-fluorobenzyl)-9-hydroxy-2,6-dimethyl-3,4,5,6,12,13-hexahydro-2H[1,4]diazocino[2,1-a]2,6-naphthyridine-1,8,10(11H)-trione] | < 10 µM
